Activity calls are given as the source filed them.
Experiments:
Kallikrein-7 = Kallikrein-7 (Homo sapiens, UniProt P49862); test: Fluorescence Intensity-based biochemical primary high throughput dose response assay to identify activators of kallikrein-7 (K7) zymogen.
[1] = target: T1, Trace amine-associated receptor 1 (Homo sapiens, UniProt Q96RJ0); test: Fluorescence-based cell-based high throughput dose response assay to identify agonists of the human trace amine associated receptor 1 (TAAR1).; format: functional
T1 sequence (Q96RJ0 whole entry): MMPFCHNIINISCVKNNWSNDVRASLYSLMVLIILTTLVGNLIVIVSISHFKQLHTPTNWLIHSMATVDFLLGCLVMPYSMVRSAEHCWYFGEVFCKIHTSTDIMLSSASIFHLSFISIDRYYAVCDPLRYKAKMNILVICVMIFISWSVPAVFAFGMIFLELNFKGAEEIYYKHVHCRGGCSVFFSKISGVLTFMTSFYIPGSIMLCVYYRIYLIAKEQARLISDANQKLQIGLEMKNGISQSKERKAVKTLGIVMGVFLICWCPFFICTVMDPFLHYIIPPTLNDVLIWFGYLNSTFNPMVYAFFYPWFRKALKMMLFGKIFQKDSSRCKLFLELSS

cells [2] = format: functional, cell-based
[3] = target: T1, Trace amine-associated receptor 1; test: Counterscreen for agonists of the human trace amine associated receptor 1 (hTAAR1): Fluorescence-based cell-based high throughput dose response assay to identify hTAAR1 agonist that also desensitize TAAR1 receptor response.; format: functional
[4] = HPDE-C7 pancreatic duct cell viability loss – fluorescence, HTS (AID 430); format: functional, cell-based; details: Homo sapiens
cells [5] = format: functional, cell-based; remark: listed apart in the source
[6] = viability loss of HPDE-C7K cells – cell-based, fluorescence, HTS, primary screen (AID 431); format: functional; details: Homo sapiens
[7] = HIV-1 AD8 envelope cell-cell fusion blockers – cherry-pick, dose response (AID 652062); format: functional, cell-based;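 also: luciferase signal from cell-cell fusion driven by HIV-1 clade B AD8 Env; potency is for inhibitors of fusion seen as a drop in luminescence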
[8] = blockers of HIV-1 envelope-mediated cell-cell fusion – cherry-pick, dose response (AID 652057); format: functional, cell-based
[9] = off-target signal loss in HeLa-CEM21 co-culture – HeLa F-luc CTL cells, cherry-picked, counter-screen for HIV-1 Env fusion inhibitor project, dose response (AID 652040); format: functional, cell-based;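 also: potency for signal decrease marking cytotoxic or nonspecific inhibition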
[10] = blockers of HIV-1 ZM109 envelope-driven cell-cell fusion – HeLa effector, CEM target cells, luciferase, cherry-pick, dose response (AID 652058); format: functional, cell-based;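 also: luciferase signal from HIV-1 Env mediated cell-cell fusion of effector and target cells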
[11] = target: Heat shock protein HSP 90-alpha (Homo sapiens, UniProt P07900); test: Luminescence-based dose response biochemical high throughput screening assay for inhibitors of the Heat Shock Protein 90 (HSP90). [Related pubchem assays: 1831 (Summary AID.), 1846 (Confirmation screen.), 1789 (Primary screen.)]
[12] = luciferase reporter signal suppression in cells – H4 neuroglioma cells, luminescence, dose response (AID 1990); format: functional, cell-based
[13] = alpha-synuclein stem-loop luciferase translation blockers – H4 neuroglioma cells, luminescence, confirmation (AID 1988); format: functional, cell-based
[14] = target: T2, Mannose-6-phosphate isomerase (Homo sapiens, UniProt P34949); test: MPI inhibition at elevated mannose 6-phosphate – biochemical, fluorescence intensity, high mannose 6-phosphate, primary screen (AID 1220)
T2 sequence (P34949 whole entry): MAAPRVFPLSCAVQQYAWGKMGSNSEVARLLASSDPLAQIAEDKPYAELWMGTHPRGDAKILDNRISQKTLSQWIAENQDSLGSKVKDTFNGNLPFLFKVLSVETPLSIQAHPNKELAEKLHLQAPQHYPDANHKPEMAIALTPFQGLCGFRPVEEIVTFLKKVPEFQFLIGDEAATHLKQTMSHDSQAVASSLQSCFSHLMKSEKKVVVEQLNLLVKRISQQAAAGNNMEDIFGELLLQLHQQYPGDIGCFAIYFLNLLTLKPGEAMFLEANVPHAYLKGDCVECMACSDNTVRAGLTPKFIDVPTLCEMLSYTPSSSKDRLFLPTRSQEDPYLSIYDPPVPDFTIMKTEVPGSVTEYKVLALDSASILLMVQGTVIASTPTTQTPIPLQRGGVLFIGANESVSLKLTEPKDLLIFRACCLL

[15] = Luminescence Cell-Based Dose Response HTS to Identify Inhibitors of 5'UTR Stem-Loop Driven Prion Protein mRNA Translation in H4 Neuroglioblastoma Cells. [Related pubchem assays: 1827 (Project Summary), 1813 (Primary HTS)]; format: functional
[16] = A549 cell cytotoxicity, dose response, cytotoxicity control, plate reader, cherry-pick, antagonist series (AID 743412); format: functional, cell-based
[17] = viability loss in HEK293 cells – cell-based, plate reader, cherry-picked samples, cytotoxicity control, dose response (AID 743446); format: functional
[18] = blockade of melanocortin 4 receptor signaling – cell-based, plate reader, cherry pick, counter-screen for LGR2 antagonist project, dose response (AID 743444); format: functional;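 also: transfected HEK 293 cells stimulated with alpha-MSH peptide; potency of inhibitors of the alpha-MSH evoked signal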
cells [19] = format: functional, cell-based; remark: listed apart in the source
cells [20] = format: functional, cell-based; remark: listed apart in the source
[21] = blockers of bursicon-stimulated LGR2 cAMP reporter – cell-based, HEK293, CRE-luciferase reporter, cherry pick, set 2, dose response (AID 743343); format: functional;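 also: transfected cells were stimulated with diluted bursicon conditioned medium after compound addition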
[22] = toxicity toward HepG2 liver cells – cell-based, plate reader, cherry-pick, antagonist series, cytotoxicity control, dose response (AID 743416); format: functional
cells [23] = format: functional, cell-based; details: HEK-CNG
Galanin receptor type 3 = target: T3, Galanin receptor type 3 (Homo sapiens, UniProt O60755); test: Fluorescence-based cell-based primary high throughput dose response assay to identify antagonists of the Galanin Receptor 3 (GalR3).; format: functional
T3 sequence (O60755 whole entry): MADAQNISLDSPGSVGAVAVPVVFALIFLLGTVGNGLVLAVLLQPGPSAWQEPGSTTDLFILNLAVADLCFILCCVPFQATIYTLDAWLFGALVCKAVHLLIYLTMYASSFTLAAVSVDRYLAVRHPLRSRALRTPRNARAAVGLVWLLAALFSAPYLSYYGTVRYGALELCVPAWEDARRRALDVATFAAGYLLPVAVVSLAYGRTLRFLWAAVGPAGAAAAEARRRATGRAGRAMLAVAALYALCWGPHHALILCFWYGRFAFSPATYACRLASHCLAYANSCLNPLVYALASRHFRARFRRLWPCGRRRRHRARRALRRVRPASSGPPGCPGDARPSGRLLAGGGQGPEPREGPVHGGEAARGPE

[24] = target: T4, COUP transcription factor 2 (Homo sapiens, UniProt P24468); test: Luminescence-based cell-based high throughput dose response assay to identify inhibitors of COUP-TFII (NR2F2).; format: functional;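 also: HEK293 cells transiently cotransfected with COUP-TFII expression vector and reporter; luciferase reporter luminescence driven by COUP-TFII from the pX2-168 reporter plasmid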
T4 sequence (P24468 whole entry): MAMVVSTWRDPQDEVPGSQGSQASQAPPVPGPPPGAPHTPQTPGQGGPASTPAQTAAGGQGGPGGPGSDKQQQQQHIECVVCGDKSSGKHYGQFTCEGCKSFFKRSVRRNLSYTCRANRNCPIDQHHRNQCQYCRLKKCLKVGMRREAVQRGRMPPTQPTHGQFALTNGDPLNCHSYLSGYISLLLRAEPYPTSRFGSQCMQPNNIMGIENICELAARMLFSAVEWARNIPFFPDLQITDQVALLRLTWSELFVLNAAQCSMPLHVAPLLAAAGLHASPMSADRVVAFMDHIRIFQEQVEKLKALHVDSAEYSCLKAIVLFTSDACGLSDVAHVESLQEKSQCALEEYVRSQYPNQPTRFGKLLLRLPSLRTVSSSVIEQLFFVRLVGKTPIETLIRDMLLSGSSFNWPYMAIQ

Caspase-6 = target: T5, Caspase-6 (Homo sapiens, UniProt P55212); test: inhibition of CASP6 peptide cleavage – biochemical, VEID-R110 fluorescence, cherry-pick, dose response (AID 720632)
T5 sequence (P55212 whole entry): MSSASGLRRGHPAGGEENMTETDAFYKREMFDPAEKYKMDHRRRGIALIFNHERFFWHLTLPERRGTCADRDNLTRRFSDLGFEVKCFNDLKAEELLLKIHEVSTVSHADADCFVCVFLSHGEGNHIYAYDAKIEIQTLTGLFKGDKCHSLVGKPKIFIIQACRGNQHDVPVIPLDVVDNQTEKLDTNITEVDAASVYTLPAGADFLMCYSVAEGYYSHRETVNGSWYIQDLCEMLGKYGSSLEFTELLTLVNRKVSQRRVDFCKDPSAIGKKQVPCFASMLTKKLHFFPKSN

[25] = potency of ADAM10 substrate cleavage blockers – biochemical, QFRET, dose response (AID 743254);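 also: ADAM10 enzyme with the DM2 quenched FRET peptide as substrate; EDANS fluorescence gain as the protease cuts the substrate; inhibitor potency against ADAM10 proteolytic activity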
[26] = target: Disintegrin and metalloproteinase domain-containing protein 17 (Homo sapiens, UniProt P78536); test: inhibition of ADAM17 substrate cleavage – biochemical, quenched FRET substrate, counter-screen for ADAM10 exosite inhibitor project, dose response (AID 743253)
Chain of Disintegrin and metalloproteinase domain-containing protein 17 (P78536 whole entry, the tested form may be a part): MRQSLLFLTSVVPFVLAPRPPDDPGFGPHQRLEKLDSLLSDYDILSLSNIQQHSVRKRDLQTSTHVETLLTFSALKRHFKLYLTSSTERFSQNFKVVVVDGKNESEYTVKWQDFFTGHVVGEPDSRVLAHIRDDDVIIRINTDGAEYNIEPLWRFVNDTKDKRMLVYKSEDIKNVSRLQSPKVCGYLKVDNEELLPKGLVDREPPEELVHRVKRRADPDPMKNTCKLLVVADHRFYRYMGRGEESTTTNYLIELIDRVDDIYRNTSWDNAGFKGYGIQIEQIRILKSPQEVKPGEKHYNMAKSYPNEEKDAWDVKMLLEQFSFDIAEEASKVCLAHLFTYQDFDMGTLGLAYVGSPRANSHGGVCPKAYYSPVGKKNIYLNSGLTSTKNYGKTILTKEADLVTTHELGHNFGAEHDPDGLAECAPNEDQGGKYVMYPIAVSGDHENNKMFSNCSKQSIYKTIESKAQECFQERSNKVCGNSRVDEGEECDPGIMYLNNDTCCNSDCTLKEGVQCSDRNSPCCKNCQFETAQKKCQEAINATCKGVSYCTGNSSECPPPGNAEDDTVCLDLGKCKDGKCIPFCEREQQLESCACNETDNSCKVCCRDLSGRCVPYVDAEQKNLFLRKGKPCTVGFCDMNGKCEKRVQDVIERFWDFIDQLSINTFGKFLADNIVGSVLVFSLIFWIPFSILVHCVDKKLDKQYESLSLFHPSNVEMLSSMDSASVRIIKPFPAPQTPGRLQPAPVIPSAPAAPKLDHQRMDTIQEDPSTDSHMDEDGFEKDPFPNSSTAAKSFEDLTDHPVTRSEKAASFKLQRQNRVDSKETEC

Paired box protein Pax-8 = Paired box protein Pax-8 (Homo sapiens, UniProt Q06710); test: PAX8 transcriptional activity inhibition in RMG-I – RMG-I cells, luciferase, cherry-pick, dose response (AID 687027); format: functional, cell-based;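 also: luciferase reporter driven by Pax8 target thyroperoxidase promoter measured by SteadyGlo luminescence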
Chain of Paired box protein Pax-8 (Q06710 whole entry): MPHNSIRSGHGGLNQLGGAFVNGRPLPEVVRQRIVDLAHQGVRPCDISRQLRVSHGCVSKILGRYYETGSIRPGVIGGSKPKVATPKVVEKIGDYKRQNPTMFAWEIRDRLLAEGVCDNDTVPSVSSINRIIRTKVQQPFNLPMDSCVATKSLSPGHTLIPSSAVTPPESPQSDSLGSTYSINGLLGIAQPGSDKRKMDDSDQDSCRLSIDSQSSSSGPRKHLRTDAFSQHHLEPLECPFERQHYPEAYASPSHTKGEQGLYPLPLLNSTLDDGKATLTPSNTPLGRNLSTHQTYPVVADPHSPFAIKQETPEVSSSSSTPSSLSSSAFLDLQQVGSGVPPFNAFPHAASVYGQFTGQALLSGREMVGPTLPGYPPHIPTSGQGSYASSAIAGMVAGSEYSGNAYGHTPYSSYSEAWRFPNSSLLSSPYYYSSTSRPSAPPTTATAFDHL

[27] = general cell-killing toxicity readout – plate reader, dry powder samples, cytotoxicity control for PAX8 inhibitor project, dose response (AID 743021); format: functional, cell-based
[28] = HEK-293T cell viability reduction – luminescence, B-cell screen hits, cytotoxicity control for BCR NF-kB inhibitor project, dose response (AID 489021); format: functional, cell-based;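 also: HEK-293T cells carrying an NF-kB luciferase reporter; cells exposed to compound for about 14 hours before viability readout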
[29] = NIH3T3 cell viability loss – ATP luminescence, mouse fibroblasts, counter-screen, dose response (AID 2010); format: functional, cell-based;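 also: cells exposed to compound for about 90 hours before reading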
[30] = Trypanosoma cruzi growth suppression in host cells – NIH3T3 host cells, beta-gal luminescence, confirmation (AID 2044); format: functional, cell-based;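 also: intracellular parasites grown in NIH/3T3 mouse fibroblasts as host cells; luminescent beta-galactosidase reporter signal from transgenic T. cruzi replicating inside host cells; inhibitors lower the luminescence signal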
[31] = P. falciparum Dd2 growth inhibitors, dose response, SYBR Green, cherry-picked samples (AID 1159567); format: functional, cell-based

Chain of Kallikrein-7 (P49862 whole entry): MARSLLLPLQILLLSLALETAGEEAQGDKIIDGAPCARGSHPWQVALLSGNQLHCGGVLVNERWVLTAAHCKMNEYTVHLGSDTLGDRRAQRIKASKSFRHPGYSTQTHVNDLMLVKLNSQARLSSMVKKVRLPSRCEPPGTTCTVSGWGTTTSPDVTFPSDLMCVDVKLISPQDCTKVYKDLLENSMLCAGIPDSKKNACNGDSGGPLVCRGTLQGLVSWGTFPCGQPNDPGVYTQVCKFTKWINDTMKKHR

## CCN(CC)S(=O)(=O)c1cccc(-c2cn3cccnc3n2)c1
Kallikrein-7
  EC50: > 69.5 µM (inactive)

## O=C(CCN1CCc2ccccc2CC1)c1ccc2c(c1)OCCO2
[1]
  EC50: 254 nM (active)
Cells [2]
  IC50: > 29.9 µM (inactive)
[3]
  IC50: 0.828 µM (active)
[4]
  EC50: 13.1 µM (active)
Cells [5]
  EC50: > 29.9 µM (inactive)
[6]
  EC50: 11.3 µM (active)

## N=c1c(C(=O)NC2CCCC2)cc2c(=O)n3ccccc3nc2n1CC1CCCO1 (configuration not stated)
Kallikrein-7
  EC50: 26.8 µM (inactive)

## c1ccc2c(c1)CCN(c1nc3cc4c(cc3s1)OCO4)C2
[1]
  EC50: 751 nM (active)
Cells [2]
  IC50: > 29.9 µM (inactive)
[3]
  IC50: 2.96 µM (active)
Cells [5]
  EC50: > 29.9 µM (inactive)

## CCOc1ccc(C(C)=O)cc1COC(=O)c1ccccc1C(=O)N(C)Cc1ccccc1
[7]
  AC50: 6.39 µM (active)
[8]
  AC50: 3.55 µM (active)
[9]
  AC50: 5.14 µM (active)
[10]
  AC50: 4.87 µM (active)

## O=C(OCc1ccccn1)c1ccc(COc2ccc3ccccc3c2)o1
[11]
  IC50: 2.61 µM (active)

## COc1cc(C(C)=O)ccc1OCC(O)CNCC(O)c1ccccc1 (configuration not stated)
[1]
  EC50: 2130 nM (active)
Cells [2]
  IC50: > 29.9 µM (inactive)
[3]
  IC50: 12.3 µM (inactive)
Cells [5]
  EC50: > 29.9 µM (inactive)

## C=CCNc1nc(NCc2ccccc2)c(C#N)c2c1CN(C)CC2
[12]
  EC50: > 120 µM (not active)
[13]
  EC50: > 120 µM (not active)
Kallikrein-7
  EC50: 13.1 µM (inactive)
[14]
  IC50: > 50 µM (not active)
[15]
  EC50: > 120 µM (not active)

## C#CCn1cc(/C=C2\NC(=O)NC2=O)c2ccccc21
[11]
  IC50: 1.31 µM (active)

## CN(c1cccc(Cl)c1)S(=O)(=O)c1cccc(C(=O)Nc2nc3ccccc3[nH]2)c1
[16]
  AC50: 14 µM (active)
[17]
  AC50: 21.1 µM (active)
[18]
  AC50: 19.6 µM (active)
Cells [19]
  EC50: 27.2 µM (active)
Cells [20]
  EC50: > 350 µM (not active)
[21]
  AC50: 24.5 µM (active)
[22]
  AC50: 22.1 µM (active)

## Cc1cccc(Cl)c1NC(=O)N1CCCN(c2nc3ccc(Cl)cc3s2)CC1
Cells [23]
  EC50: > 29.9 µM (inactive)
Galanin receptor type 3
  IC50: 2.06 µM (active)
[24]
  IC50: 11.3 µM (inactive)

## O=C(O)c1ccc([N+](=O)[O-])c([N+](=O)[O-])c1
Caspase-6
  AC50: 12.3 µM (active)

## CCCCC[C@H](C)N1C[C@@H](COCc2ccccc2)Oc2cc(N3CC[C@H](O)C3)ccc2S1(=O)=O
[25]
  IC50: 8.14 µM (active)
[26]
  IC50: > 69.5 µM (inactive)

## C[C@@H]1CCCCO[C@H](CN(C)C(=O)NC2CCCCC2)[C@H](C)CN([C@@H](C)CO)C(=O)c2cc(NS(=O)(=O)c3ccc(Cl)cc3)ccc2O1
Paired box protein Pax-8
  AC50: 10.5 µM (active)
[27]
  AC50: 52.5 µM (active)

## CCCCCCCCN1C(=O)[C@@H](CC(=O)NCc2ccc(OC)c(OC)c2)C[C@@]2(C(=O)OC)C1=C[C@H](C(C)C)O[C@@H]2C1CC1
[25]
  IC50: 10.8 µM (inactive)
[26]
  IC50: > 69.5 µM (inactive)

## COc1ccccc1NC(=O)C(=N\O)/C(C)=N/O
Caspase-6
  AC50: 11.2 µM (active)

## COc1ccc(/C=N/OCC(=O)NC(c2ccccc2)c2ccccc2)cc1OC
[28]
  IC50: > 80 µM (inactive)
[29]
  EC50: > 60 µM (not active)
[30]
  EC50: 560 nM (active)
Cells [23]
  EC50: > 29.9 µM (inactive)
Galanin receptor type 3
  IC50: 1.23 µM (active)
[24]
  IC50: 5.09 µM (active)

## COc1ccc2c3c(n(C)c2c1)[C@@H](CO)N(Cc1ccccc1)CC31CCN(S(=O)(=O)c2ccc(C)cc2)CC1
[31]
  AC50: 6.1 µM (active)

From ChEMBL document CHEMBL1201862, “PubChem BioAssay data set” (2004)
